# Results: patent publication US8063043B2, “Salts of N-[6-cis-2,6-dimethylmorpholin-4-yl)pyridine-3-yl]-2-methyl-4′-(trifluoromethoxy)[1,1′-biphenyl]-3-carboxamide” (Novartis AG, priority 2008, dated 2011)
# Like-named read-outs stand apart in the source and are kept apart here.
# How the values were obtained:
# [1] = Hygroscopicity, DVS sorption/desorption isotherms; type: physicochemical; conditions: for DVS Desorp. Weight % chg. / DVS Sorp. Weight % chg.: 25° C.
# Procedure: Sorption/desorption isotherms: Instrument, Surface Measurement System DVS-1 temperature at 25±0.5° C.
# [2] = Solid form after stress test (XRPD/DSC); type: physicochemical
# [3] = Thermogravimetry (weight loss / loss on drying); type: physicochemical; conditions: at 150° C.
# [4] = Crystal modification after 72 hours vibration (polymorphism behavior of slurries); type: physicochemical
# Source text: The slurries were filtered and the solids collected for XRPD analyses.
# [5] = physchem; conditions: 25 °C, thermodynamic from solid, Solubility (approx. at 25° C., mg/ml)
# [6] = Stability: appearance color (CL); type: physicochemical
# [7] = Bulk corrosivity with stainless steel coupon; type: physicochemical; conditions: 2 day 80% r.h. with stainless steel coupon; change in the surface of the coupon
# [8] = Stability measured by degradation products (DP, HPLC area-%); type: physicochemical
# Procedure: DPs are analyzed by HPLC (method see Table 3). They are calculated as area-% products. Compositions of the mixtures in mass % are as follows.
# For salts in water, acetonitrile was added to dilute the 0.2% slurry to 0.1% clear solution. For salts in methanol, acetonitrile or acetonitrile/water (50:50, v/v), the corresponding solvent or solvent mixture was added to dilute the 0.2% slurry to 0.1% clear solution. For salts in 0.5% CMC, HPMC cellulose 4000 0.5%, or Tween 80, 0.8%, tetrahydrofuran and water were added to dilute the 2% slurry to 0.1% clear solution and to reach tetrahydrofuran/water 50:50 (v/v). For bulk stability samples (including the samples in excipient mixtures), acetonitrile/water (80:20, v/v) was added to make 0.1% clear solution.
# [9] = pH 6.8
# [10] = pH of 1% solution or suspension; type: physicochemical; conditions: In water
# Procedure: The solutions were stirred continuously as the pH was measured.
# [11] = Rat PK of suspension formulations, free form vs diphosphate salt; type: in vivo
# [12] = 3.0 mg/kg PO dose in suspension, mean
# [13] = in vivo, 3.0 mg/kg PO dose in suspension, mean
# [14] = in vivo, IV 3 mg/kg, mean, n = 2
compound,measurement,setting,value
"Cc1c(C(=O)Nc2ccc(N3C[C@@H](C)O[C@@H](C)C3)nc2)cccc1-c1ccc(OC(F)(F)F)cc1.Cl [Hydrochloride, mono]",XRPD after DVS test,[1],No change
same,DVS Desorp. Weight % chg.,[1]; RH 0.0%,−0.0114%
same,DVS Sorp. Weight % chg.,[1]; RH 0.0%,−0.0001%
same,DVS Desorp. Weight % chg.,[1]; RH 25.0%,0.3799%
same,DVS Sorp. Weight % chg.,[1]; RH 25.0%,0.3334%
same,DVS Desorp. Weight % chg.,[1]; RH 50.0%,0.4932%
same,DVS Sorp. Weight % chg.,[1]; RH 50.0%,0.4660%
same,DVS Desorp. Weight % chg.,[1]; RH 75.0%,0.6069%
same,DVS Sorp. Weight % chg.,[1]; RH 75.0%,0.5753%
same,DVS Desorp. Weight % chg.,[1]; RH 85.0%,0.6817%
same,DVS Sorp. Weight % chg.,[1]; RH 85.0%,0.6525%
same,DVS Desorp. Weight % chg.,[1]; RH 95.0%,0.8784%
same,DVS Sorp. Weight % chg.,[1]; RH 95.0%,0.8784%
same,Bulk (XRPD): change,"[2]; Solid state, 2 week 50° C., tight container",No
same,Bulk (XRPD): change,"[2]; Solid state, 2 week 50° C./75% r.h., footnote: new peak in the XRPD pattern compared with unstressed diphosphate",No
same,Bulk (DSC): change,"[2]; Solid state, 2 week 80° C., tight container",No
same,Bulk (XRPD): change,"[2]; Solid state, 2 week 80° C./75% r.h., footnote: pattern similar to that of phosphate, with one extra peak",No
same,Bulk (XRPD): change,[2]; Xenon light (approx. 1200 kLuxh),No
same,Thermogravimetry (weight loss in %),[3]; Heating rate 10° C./min,0.48% at 150 °C
same,Loss on drying by TGA (%),"[3]; Hygroscopicity, as is",0.48 at 150 °C %
same,Crystal modification after 72 hours vibration (DSC/XRPD/TG),[4]; 0.1N HCl solution,XRPD pattern
same,Crystal modification after 72 hours vibration (DSC/XRPD/TG),"[4]; Acetone, N—no, Y—yes","N, no form change"
same,Crystal modification after 72 hours vibration (DSC/XRPD/TG),"[4]; Acetonitrile, N—no, Y—yes","N, no form change"
same,Crystal modification after 72 hours vibration (DSC/XRPD/TG),"[4]; Ethanol, N—no, Y—yes","N, no form change"
same,Crystal modification after 72 hours vibration (DSC/XRPD/TG),"[4]; Ethyl acetate, N—no, Y—yes","N, no form change"
same,Crystal modification after 72 hours vibration (DSC/XRPD/TG),"[4]; Iso Propanol, N—no, Y—yes","N, no form change"
same,Crystal modification after 72 hours vibration (DSC/XRPD/TG),[4]; Water,Dissociated to free
same,Final pH of slurry,[4]; Water,Final pH 1.94
same,Crystal modification after 72 hours vibration (DSC/XRPD/TG),[4]; pH 3 buffer,Dissociated to free
same,Final pH of slurry,[4]; pH 3 buffer,Final pH 2.89
same,Crystal modification after 72 hours vibration (DSC/XRPD/TG),[4]; pH 6.8 buffer,No form change
same,Final pH of slurry,[4]; pH 6.8 buffer,Final pH 5.93
same,solubility at 1 day,"[5]; pH 1, simulated gastric fluid",2 µg/mL
same,solubility at 1 day,[5]; water,5 µg/mL
same,CL,"[6]; 0.2% solutions or suspensions, 2 week 50° C., Acetonitrile/Water (50:50), clear solution after stress test (*)",A *
same,CL,"[6]; 0.2% solutions or suspensions, 2 week 50° C., Acetonitrile, clear solution after stress test (*)",A *
same,CL,"[6]; 0.2% solutions or suspensions, 2 week 50° C., Methanol, clear solution after stress test (*)",A *
same,CL,"[6]; 0.2% solutions or suspensions, 2 week 50° C., Water, suspension (↓)",A ↓
same,CL,"[6]; 2% (or 5%) solutions or suspensions, 1 day room temperature, 0.5% CMC, suspension (↓)",A ↓
same,CL,"[6]; 2% (or 5%) solutions or suspensions, 1 day room temperature, HPMC Cellulose 4000 0.5%, suspension (↓)",A ↓
same,CL,"[6]; 2% (or 5%) solutions or suspensions, 1 day room temperature, Tween 80, 0.8%, suspension (↓)",A ↓
same,Bulk corrosivity,[7],No visible change
same,DP [%],"[8]; 0.2% solutions or suspensions, 2 week 50° C., Acetonitrile",0.38%
same,DP [%],"[8]; 0.2% solutions or suspensions, 2 week 50° C., Acetonitrile/Water (50:50)",1.72%
same,DP [%],"[8]; 0.2% solutions or suspensions, 2 week 50° C., Methanol",2.06%
same,DP [%],"[8]; 0.2% solutions or suspensions, 2 week 50° C., Water",0.31%
same,DP [%],"[8]; 2% (or 5%) solutions or suspensions, 1 day room temperature, 0.5% CMC",0.33%
same,DP [%],"[8]; 2% (or 5%) solutions or suspensions, 1 day room temperature, HPMC Cellulose 4000 0.5%",0.32%
same,DP [%],"[8]; 2% (or 5%) solutions or suspensions, 1 day room temperature, Tween 80, 0.8%",0.31%
same,DP [%],"[8]; 2 weeks 50° C., tight container, 1% in mixture 1 (Lactose/maize starch/Aerosil/Magnesiumstearate)",0.27%
same,DP [%],"[8]; 2 weeks 50° C., tight container, 1% in mixture 2 (Mannitol/Avicel PH 102/Cutina HR)",0.39%
same,DP [%],"[8]; 2 weeks 50° C./75% r.h., 1% in mixture 1",2.85%
same,DP [%],"[8]; 2 weeks 50° C./75% r.h., 1% in mixture 2",0.31%
same,DP [%],"[8]; Solid state, 2 week 50° C., tight container, Bulk (HPLC)",0.31%
same,DP [%],"[8]; Solid state, 2 week 50° C./75% r.h., Bulk (HPLC)",0.29%
same,DP [%],"[8]; Solid state, 2 week 80° C., tight container, Bulk (HPLC)",0.35%
same,DP [%],"[8]; Solid state, 2 week 80° C./75% r.h., Bulk (HPLC)",0.35%
same,DP [%],"[8]; Unstressed drug substance, bulk",0.30%
same,DP [%],"[8]; Xenon light (approx. 1200 kLuxh), Bulk (HPLC)",1.46%
same,"Solubility (approx. at 25° C., mg/ml)",[9]; 1 day,0.000 (Final mg/ml
same,Final pH of solubility sample,[9],pH 5.93)
same,pH of 1% solution or suspension,[10],1.69
Cc1c(C(=O)Nc2ccc(N3C[C@@H](C)O[C@@H](C)C3)nc2)cccc1-c1ccc(OC(F)(F)F)cc1 [Free base],AUCinf/dose,[11]; [12],171 nM·h/mg/kg
same,AUClast/dose,[11]; [12],170 nM·h/mg/kg
same,Cmax/Dose,[11]; [12],78.9 nM/mg/kg
same,AUCinf/dose,"[11]; IV 3 mg/kg, mean, n = 2",5840 nM·h/mg/kg
same,AUClast/dose,"[11]; IV 3 mg/kg, mean, n = 2",5830 nM·h/mg/kg
same,bioavailability,"[11]; in vivo, 3.0 mg/kg PO dose in suspension",3%
same,AUC(0-inf),[11]; [13],0.512 µM·h
same,AUC(0-t),[11]; [13],0.51 µM·h
same,tmax,[11]; [13],30 min
same,Cmax,"[11]; in vivo, 3.0 mg/kg PO dose in suspension, mean, read-out: C0/Cmax",0.237 µM
same,AUC(0-inf),[11]; [14],17.5 µM·h
same,AUC(0-t),[11]; [14],17.5 µM·h
same,Cmax,"[11]; in vivo, IV 3 mg/kg, mean, n = 2, read-out: C0/Cmax",6.11 µM
